Data: PubChem BioAssay AID248 (DTP/NCI, 2004)
Inconclusive results and toxic doses are left out. Cut-off read from the data, not from the text of the source: active = T/C of 150% or more; inactive = T/C below 125%.

Tested on: L1210 leukemia ip in BDF1 mice, survival T/C
Assay: NCI In Vivo Anticancer Drug Screen. Data for tumor model L1210 Leukemia (intraperitoneal) in B6D2F1 (BDF1) mice
Details: endpoint: mean survival time, higher = longer survival
Outline: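 Tumor was transplanted into mice, which were then dosed with test compound or vehicle alone. Survival was recorded for each group, and the treated figure was expressed relative to the control figure.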

Measured: T/C

N/C(=N\[N+](=O)[O-])N(Cc1ccccc1)/N=C/c1ccccc1
inactive: dose: 87.5 mg/kg/injection, schedule: Q04DX003 (ip), vehicle: Klucel (hydroxypropylcellulose) (HPC) 92 % of control | dose: 175.0 mg/kg/injection, schedule: Q04DX003 (ip), vehicle: Klucel (hydroxypropylcellulose) (HPC) 92 % of control | dose: 350.0 mg/kg/injection, schedule: Q04DX003 (ip), vehicle: Klucel (hydroxypropylcellulose) (HPC) 88 % of control

CC1CC(C)(C)OC(C(C)C)O1 (configuration not stated)
inactive: dose: 50.0 mg/kg/injection, schedule: Q01DX009 (ip), vehicle: acetone 100 % of control | dose: 75.0 mg/kg/injection, schedule: Q01DX001 (ip), vehicle: acetone 95 % of control | dose: 100.0 mg/kg/injection, schedule: Q01DX009 (ip), vehicle: acetone 97 % of control | dose: 150.0 mg/kg/injection, schedule: Q01DX001 (ip), vehicle: acetone 92 % of control | dose: 200.0 mg/kg/injection, schedule: Q01DX009 (ip), vehicle: acetone 94 % of control | dose: 300.0 mg/kg/injection, schedule: Q01DX001 (ip), vehicle: acetone 87 % of control

O=C(O)c1ccc(Cn2ccc(=O)[nH]c2=O)cc1
inactive: dose: 100.0 mg/kg/injection, schedule: Q01DX001 (ip), vehicle: saline with Tween-80 95 % of control | dose: 200.0 mg/kg/injection, schedule: Q01DX001 (ip), vehicle: saline with Tween-80 107 % of control | dose: 400.0 mg/kg/injection, schedule: Q01DX001 (ip), vehicle: saline with Tween-80 101 % of control
